Earlier results in US5814631A, “Quinazoline derivatives and applications thereof” (Suntory Limited, priority 1995, dated 1998).

Tested on: chymase
Details: canine, simian, and human arterial tissue; cited from earlier work

**Q.** With `CC(C)C[C@H](NC(=O)[C@@H](NC(=O)N[C@@H](Cc1ccccc1)C(=O)O)[C@@H]1CCN=C(N)N1)C(=O)N[C@H](C=O)Cc1ccccc1` [chymostatin] as the compound, how does the “inhibition of the enzymatic activity of chymase, in words” value read?
**A.** Its value is “inhibited”.
